Measured values from US6481153B1, “Turf additive formulation for reduction of localized dry spots due to water repellency” (Milliken & Company, priority 2001, dated 2002).

Tested on: not listed separately
Assay: hydrophobic sand humic acid removal test
Conditions: formulation diluted 42 parts water:1 part; 2 ml on 3 g humic acid coated sand; dried 60° C. 24 hours; 10 ml distilled water passed through; absorbance at 620 nm vs humic acid calibration curve
Protocol: Initially, a calibrated stock solution measurement curve for humic acid itself was generated for comparison purposes with tested humic acid removal samples. Thus, a 5000 ppm Humic Acid (purchased from Fluka Chemika) stock solution was prepared by dissolving 0.5 grams of Humic acid in 100 milliliters of water. Further standard solutions were prepared by serial dilution of the 5000 ppm sandard stock solution. The absorbance of each solution was measured at 620 nm on a Beckman Model DU 650 Spectrophotometer and a plot of absorbance versus concentration provided the Humic
The Examples, listed above, both inventive and comparative, were then each individually diluted with water (42 parts water:1 part example formulation). Two milliliters of each diluted example was then placed into the open end of a 19 inch clear plastic tube containing 3 grams of the above specific humic acid coated sand. One end was then plugged by a two-layer cheese cloth square of 1.5×1.5 cm and then the tube was situated vertically with the plugged end lower. The solutions were allowed to pass through the sand and were collected after passing through the plug. The sand was then placed in an oven at 60° C. for 24 hours to remove any residual moisture. The sand (3 grams) was again packed into a 19 inch clear plastic tube plugged at one end with the cheese cloth plug. Ten ml of distilled water was then passed through the sand and collected. The absorbance at 620 nm of the distilled water sample was then measured and compared to the humic acid calibration curve (from the Table, above) to determine the amount of humic acid removed from the coated sand. This test is, for the context of this invention, is the definition of “hydrophobic sand humic acid removal test”.

Compound	ppm Removed (Removal of Humic acid from Sand) [ppm]
TPSA Mono-TEA Salt [Example 7]	872.40
fully neutralized n-octenyl succinic anhydride sulfanilic sodium salt [Example 9]	1015.15
O=C([O-])CCCCCCCCC(=O)[O-].[K+].[K+] [Example 4, Potassium sebacate]	789.78
TPSA Di-TEA Salt [Example 8]	246.46
TPSA Dipotassium Salt [Example 6]	837.52

Tested on: grass
Assay: not given
Conditions: in vivo; cited from earlier work

Compound	phytotoxicity to grass
[Na+].[OH-] [sodium hydroxide]	highly phytotoxic
